# Results from patent US4120864A, “1,2,4-4H-triazole derivatives” (Rohm and Haas Company, priority 1972, dated 1978).
# Counter-ions that a name gives are not always drawn. Like-named read-outs stand apart in the source and are kept apart here.
# Assays:
# Assay type in all cases: in vivo
# [1] = system: wheat leaf rust, Puccinia recondita; test: whole plant or invertebrate; conditions: foliar; for pest or weed control at 280.212 g/ha: read-out: % Control (without rain), foliar, 0.25 lb.; for pest or weed control at 1120.85 g/ha: read-out: % Control (without rain), foliar, 1 lb.
# [2] = system: wheat leaf rust, Puccinia recondita; test: Foliar systemic activity on leaf rust
# Description: Another type of systemic test was run in which pots of approximately 5 inch high wheat plants were sprayed with varying concentrations of the test compound. Thirty-six hours later they were sprayed six minutes in a rain machine which amounted to about one inch of normal rainfall. The plants were then placed in a greenhouse for 7 days and then inoculated with a spore suspension of wheat leaf rust, Puccinia recondita. About 7 days later lesion counts were made on ten leaves representing the sprayed leaves and new growth from each replicate and compared with similar pots of wheat plants which were untreated with a chemical and the percent disease control determined. Disease control on the new growth is a measure of systemic activity. The commercial product known by the trademarked name Plantvax, which is 2,3-dihydro-5-carboxanilido-6-methyl-1,4-oxathiin-4,4-dioxide, was used as a standard.
# [3] = system: wheat leaf rust, Puccinia recondita
# [4] = system: wheat leaf rust, Puccinia recondita; test: whole plant or invertebrate; conditions: foliar; for pest or weed control at 280.212 g/ha: read-out: % Control (with 1" of rain), foliar, 0.25 lb., 1" of rain; for pest or weed control at 1120.85 g/ha: read-out: % Control (with 1" of rain), foliar, 1 lb., 1" of rain
Compound,pest or weed control at 280.212 g/ha [1] [%],pest or weed control at 1120.85 g/ha [1] [%],"% Rust Control, New growth ([2]; 1/2 lb./100 gal.) [%]","% Rust Control, Sprayed Leaf ([2]; 1/2 lb./100 gal.) [%]","% Rust Control, New growth ([2]; 1/6 lb./100 gal.) [%]","% Rust Control, Sprayed Leaf ([2]; 1/6 lb./100 gal.) [%]","% Rust Control, New growth ([2]; 1/12 lb./100 gal.) [%]","% Rust Control, Sprayed Leaf ([2]; 1/12 lb./100 gal.) [%]",% Systemic Wheat Leaf Rust Control ([3]; 2.5 ppm in soil) [%],% Systemic Wheat Leaf Rust Control ([3]; 5 ppm in soil) [%],% Systemic Wheat Leaf Rust Control ([3]; 10 ppm in soil) [%],pest or weed control at 280.212 g/ha [4] [%],pest or weed control at 1120.85 g/ha [4] [%],% Systemic Wheat Leaf Rust Control ([3]; 20 ppm in soil) [%],% Control (without rain) ([1]; 0.25 lb.) [%],% Control (without rain) ([1]; 1 lb.) [%],"% Control (with 1"" of rain) ([4]; 0.25 lb.) [%]","% Control (with 1"" of rain) ([4]; 1 lb.) [%]"
"CCCCn1cnnc1SCCOCC [Example 107, 3-(2-ethoxyethylmercapto)-4-n-butyl-1,2,4-triazole]",100,100,61,73,23,27,17,25,52,85,89,100,100,,,,,
"CCCCCCn1cnnc1 [Example 9, 4-n-hexyl-1,2,4-triazole]",100,100,,,,,,,77,92,,100,100,,,,,
"CCCn1cnnc1 [Example 1, 4-n-propyl-1,2,4-triazole]",100,100,,,,,,,99,100,,87,100,,,,,
"CC(C)Cn1cnnc1 [Example 4, 4-isobutyl-1,2,4-triazole]",95,95,,,,,,,,,,30,60,100,,,,
"CCCCn1cnnc1Sc1ccc([N+](=O)[O-])cc1[N+](=O)[O-] [Example 127, 3-(2,4-dinitrophenylmercapto)-4-n-butyl-1,2,4-triazole]",100,100,81,98,69,93,57,81,67,94,100,,100,,,,,
"CCCCn1cnnc1SC(=O)NC [Example 114, 3-methylcarbamoylmercapto-4-n-butyl-1,2,4-triazole]",100,100,98,96,79,83,67,68,96,100,100,100,100,,,,,
"CCCCn1cnn(CCC#N)c1=S [Example 106, 2-(2-cyanoethyl)-4-n-butyl-1,2,4-triazoline-3-thione]",100,100,,,,,,,82,86,92,99,100,,,,,
"CCCCn1c(SC(=S)N(C)C)nnc1C(=O)O [Example 101, 3-dimethylthiocarbamoylmercapto-4-n-butyl-5-carboxy-1,2,4-triazole]",100,100,,,,,,,88,96,100,100,100,,,,,
"Clc1ccc(-n2cnnc2)nc1 [Example 63, 4-(5-chloro-2-pyridyl)-1,2,4-triazole]",90,95,,,,,,,,,,45,85,95,,,,
"CC(C)CCn1cnnc1 [Example 8, 4-isopentyl-1,2,4-triazole]",98,99,,,,,,,,,,98,100,100,,,,
"CCCn1cnnc1S [Example 75, 3-mercapto-4-n-propyl-1,2,4-triazole]",91,100,,,,,,,40,82,84,100,99,,,,,
"COCCCn1cnnc1 [Example 46, 4-(3-methoxypropyl)-1,2,4-triazole]",100,100,,,,,,,96,99,,99,100,,,,,
"N#CCCn1ncn(-c2ccccc2)c1=S [Example 126, 2-(2-cyanoethyl)-4-phenyl-1,2,4-triazoline-3-thione]",93,96,42,13,27,0,0,0,,,,83,96,,,,,
"Clc1ccc(-n2cnnc2)cc1Cl [Example 57, 4-(3,4-dichlorophenyl)-1,2,4-triazole]",80,90,,,,,,,54,,68,40,60,,,,,
"CCCCn1cnnc1SC(=O)c1ccco1 [Example 124, 3-furoylmercapto-4-n-butyl-1,2,4-triazole]",100,100,,,,,,,94,99,99,100,100,,,,,
"CCCCn1c(S)nnc1C(=O)OCC [Example 98, sodium salt of 3-mercapto-4-butyl-5-ethoxycarbonyl-1,2,4-triazole]",,,,,,,,,85,97,99,,,,86,100,100,100
"CCCCn1cnnc1SCC(=O)c1ccc(OC)cc1 [Example 125, 3-(p-methoxyphenacylmercapto)-4-n-butyl-1,2,4-triazole]",50,60,,,,,,,55,68,44,20,30,,,,,
